Consider one compound from ChEMBL document CHEMBL1133319, “Eryloside F, a novel penasterol disaccharide possessing potent thrombin receptor antagonist activity” (Bioorg Med Chem Lett, 2000).

For experiment [1], the species on record is Homo sapiens. In words: Inhibitory concentration of compound was determined against SFLLRN (3 uM) induced platelet aggregation. The experiment is classed as functional.
Experiment [2] is filed under the species Homo sapiens. The experiment in a line: Inhibitory concentration of compound was determined against U-46619 (3 uM) induced platelet aggregation. The experiment is classed as functional.

≈ marks a conversion by molar mass, not a printed value.

With `CC(C)=CCC[C@@H](C)[C@H]1CC[C@@]2(C(=O)O)C3=C(CC[C@]12C)[C@@]1(C)CC[C@H](O[C@@H]2OC[C@H](O)[C@H](O)[C@H]2O[C@@H]2O[C@H](CO)[C@H](O)[C@H](O)[C@H]2O)C(C)(C)[C@@H]1CC3` [ERYLOSIDE F], the IC50 (usually the midpoint of a concentration-inhibition curve) in experiment [1] was found to be 0.3 µg/mL (≈ 0.399 µM); in experiment [2], 1.7 µg/mL (≈ 2.26 µM).
